Measurements from patent US7166599B2, “Trisubstituted pyrimidines” (Boehringer Ingelheim Pharma GmbH & Co. KG, priority 2001, dated 2007).

Test system: not given
Assay: not given
Details: not given

Row | melting point | SMILES
1 | 270 °C | CNc1nc(Nc2cccc(OCCN)c2)ncc1[N+](=O)[O-].Cl.Cl
2 | 288 °C | CNc1nc(Nc2ccc([S+](C)[O-])cc2)ncc1[N+](=O)[O-] (stereo not drawn) [Example 10 a), 2-(4-methylsulphinylphenylamino)-4-methylamino-5-nitropyrimidine]
3 | 323 °C | CNc1nc(Nc2ccc(S(C)(=O)=O)cc2)ncc1[N+](=O)[O-] [Example 10 b), 2-(4-methylsulphonylphenylamino)-4-methylamino-5-nitropyrimidine]

Test system: γ-secretase
Assay: γ-secretase HTS luciferase reporter assay (inhibition of Aβ formation) in H4 neuroglioma cells stably carrying pFRLuc and Aβ-KKK/Gal4
Format: cell-based
Details: luciferase activity (Steady-Glo) in doubly stable H4 neuroglioma HTS cell line, test substance incubated overnight (8–16 h), compared with control
Excerpt: The inhibition of Aβ formation was investigated using the following test system:
Preparation of a suitable γ-secretase HTS cell line:
H4 neuroglioma cells (Accession number HTB 148 at the “American Type Culture Collection”, Manassas, Va., USA) were transfected under standard conditions with the reporter construct pFRLuc (Stratagene) which carries the gene for luciferase. By transient transfection experiments with pcDNA3-Gal4 which codes for the soluble Gal4, an individual clone having the highest luciferase activity was selected. In order to prepare the Aβ-KKK/Gal4 construct, a sequence containing the N-terminal signal sequence of APP and the first 55 amino acids of Aβ (Shoji et al, 1992) was linked to the Gal4 coding sequence (Laughan, A and Gesteland, R Molec. Cell Biol., 1984, 4: 260–267) by genetic engineering and cloned into the expression vector pcDNA3neo (Invitrogen). This construct was called pcDNA3-AβKKK/Gal4. In order to insert an ER-retention signal in the substrate of the γ-secretase, the last nucleotides of the Gal4 were altered by genetic engineering so that they coded for the amino acids KKLI. This construct was named Aβ-KKK-ER. The cell clone obtained as described above was used for the second stable transfection with pcDNA3-Aβ-KKK/Gal4 or pcDNA3-Aβ-KKK-ER and the selection with neomycin was carried out under standard conditions (Sambrook and Maniatis, 1989). Individual neomycin-resistant cell clones were investigated for their expression of luciferase. The clones with the highest expression were used for the substance analyses. All the transfections were carried out using the Fugene transfection system supplied by Boehringer Mannheim, in accordance with the manufacturer's instructions.
The doubly stabile HTS cell line is seeded onto a 96/384 microtitre plate. When the cells are confluent, they are incubated with the particular test substance for a specified length of time. After incubation the cell medium is removed and the luciferase enzyme activity is determined precisely as instructed by the manufacturer of the test kit used (SteadyGlo, Promega).
As a result of the presence of an endogenous γ-secretase activity in the H4 cells the substrate (Aβ-KKK/Gal4) is cleaved proteolytically, while the transactivator Gal4 is able to become detached from the membrane and enter the cell nucleus. In the cell nucleus Gal4 binds to the Gal4-DNA binding domain of the reporter construct and thus activates the expression of the luciferase. If a specific γ-secretase inhibitor is present the substrate cannot be cleaved and Gal4 remains bound to the substrate on the cell membrane, leading to a reduction amounting to total inhibition of the luciferase activity.
Cells are seeded on 96/384 well plates in DMEM complete medium (10% FCS, 1% glutamine, 1% penicillin/streptomycin) in a dilution of 1:5. The cells are incubated for 24 to 48 h (depending on the cell clone and the dilution used) at 37° C., 5% CO2 and allowed to grow until 80–90% confluence is achieved. Then the test substance is added and the preparation is incubated overnight (8–16 h) at 37° C. and 5% CO2. The 96/384 well plates are equilibrated to ambient temperature (RT). The “Steady-Glo” Luciferase Assay System Kit (Promega catalogue no. E2520) is used. The Luciferase Assay Reagent is thawed and equilibrated to ambient temperature or freshly prepared (Luciferase Assay Substrate dissolved in Luciferase Assay Buffer). The medium is suction filtered […]. 100 μl (based on 96 well plates) of fresh complete medium are added per well. 100 μl (based on 96 well plates) of Luciferase Assay Reagent are added and the preparation is incubated for 5 min at RT. Then the luminescence is measured. For 384 well plates the quantities pipetted are reduced accordingly.
The measurements are compared with the control and then the IC50 is determined from a number of measurements.

Row | IC50 | SMILES
4 | 800 nM | CNc1nc(Nc2ccc(Cl)cc2)ncc1[N+](=O)[O-] [1 (1), 2-(4-chlorophenylamino)-4-methylamino-5-nitro-pyrimidine]
5 | 1000 nM | CNc1nc(Nc2ccc(Cl)c(Cl)c2)ncc1N [2 (1), 2-(3,4-dichlorophenylamino)-4-methylamino-5-amino-pyrimidine]
6 | 60 nM | CNc1nc(Nc2ccc(Cl)c(Cl)c2)ncc1NS(C)(=O)=O [3 (3), 2-(3,4-dichlorophenylamino)-4-methylamino-5-methylsulphonylamino-pyrimidine]
7 | 60 nM | CNc1nc(Nc2ccc(Cl)c(Cl)c2)ncc1NC(C)=O [3 (4), 2-(3,4-dichlorophenylamino)-4-methylamino-5-acetylamino-pyrimidine]
8 | 600 nM | CNc1nc(Nc2ccc(Cl)c(Cl)c2)ncc1N1CCNC1=O [3 (26), 2-(3,4-dichlorophenylamino)-4-methylamino-5-(imidazolidin-2-on-1-yl)-pyrimidine]
9 | 200 nM | CNc1nc(Nc2ccc(Cl)c(Cl)c2)ncc1NC(=O)N1CCOCC1 [3 (30), 2-(3,4-dichlorophenylamino)-4-methylamino-5-morpholinocarbonylamino-pyrimidine]
10 | 300 nM | CNc1nc(Nc2ccc(Cl)c(Cl)c2)ncc1N1CCCNC1=O [3 (33), 2-(3,4-dichlorophenylamino)-4-methylamino-5-(tetrahydro-2(1H)-pyrimidinon-1-yl)-pyrimidine]
11 | 250 nM | CNc1nc(Nc2ccc(Cl)cc2F)ncc1NC(=O)N(C)C [3 (36), 2-(4-chloro-2-fluorophenylamino)-4-methylamino-5-(N,N-dimethylcarbamoyl-amino)-pyrimidine]
12 | 350 nM | CNc1nc(Nc2ccc(Cl)c(Cl)c2)ncc1NC(N)=O [3 (40), 2-(3,4-dichlorophenylamino)-4-methylamino-5-aminocarbonylamino-pyrimidine]
13 | 900 nM | CN(C)c1nc(Nc2ccc(Cl)c(Cl)c2)ncc1NC(=O)N1CCOCC1 [3 (54), 2-(3,4-dichlorophenylamino)-4-dimethylamino-5-(morpholinocarbonylamino)-pyrimidine]
14 | 900 nM | CCNc1nc(Nc2ccc(Cl)c(Cl)c2)ncc1NC(=O)N1CCOCC1 [3 (55), 2-(3,4-dichlorophenylamino)-4-ethylamino-5-(morpholinocarbonylamino)-pyrimidine]
15 | 150 nM | CNc1nc(Nc2cccc(Cl)c2)ncc1NC(=O)N1CCOCC1 [3 (59), 2-(3-chlorophenylamino)-4-methylamino-5-(morpholinocarbonylamino)-pyrimidine]
16 | 800 nM | CNc1nc(Nc2ccc(Cl)c(Cl)c2)ncc1NC(=O)C(F)(F)F [3 (66), 2-(3,4-dichlorophenylamino)-4-methylamino-5-trifluoracetylamino-pyrimidine]
17 | 1000 nM | CN(C)CCCNc1nc(Nc2ccc(Cl)c(Cl)c2)ncc1[N+](=O)[O-] [4 (9), 2-(3,4-dichlorophenylamino)-4-[3-(dimethylamino)propylamino]-5-nitro-pyrimidine]
18 | 1000 nM | CNc1nc(N(C)c2ccc(Cl)c(Cl)c2)ncc1N1CCNC1=O [8 (2), 2-[N-(3,4-dichlorophenyl)-N-methylamino]-4-methylamino-5-(imidazolidin-2-on-1-yl)-pyrimidine]
19 | 100 nM | CNc1nc(Nc2ccc(Cl)c(Cl)c2)ncc1NC(=O)N1CCN(C)CC1 [11 (2), 2-(3,4-dichlorophenylamino)-4-methylamino-5-(4-methylpiperazinocarbonylamino)-pyrimidine]
20 | 4 nM | CNc1nc(Nc2ccc(Cl)c(Cl)c2)ncc1NC(=O)N(CCOC)CCOC [11 (3), 2-(3,4-dichlorophenylamino)-4-methylamino-5-[[bis-(2-methoxyethyl)amino]-carbonylamino]-pyrimidine]
21 | 60 nM | CNc1nc(Nc2ccc(Cl)c(Cl)c2)ncc1NC(=O)N1CCCCCC1 [11 (4), 2-(3,4-dichlorophenylamino)-4-methylamino-5-(hexamethyleneiminocarbonylamino)-pyrimidine]
22 | 100 nM | CCN(CC)C(=O)Nc1cnc(Nc2ccc(Cl)c(Cl)c2)nc1NC [11 (5), 2-(3,4-dichlorophenylamino)-4-methylamino-5-(diethylaminocarbonylamino)-pyrimidine]
23 | 700 nM | CNc1nc(Nc2ccc(Cl)c(Cl)c2)ncc1NC(=O)N1CCNCC1 [11 (6), 2-(3,4-dichlorophenylamino)-4-methylamino-5-(piperazinocarbonylamino)-pyrimidine]
24 | 1000 nM | CNc1nc(Nc2ccc(Cl)c(Cl)c2)ncc1NC(=O)N1CCN(C(C)=O)CC1 [11 (7), 2-(3,4-dichlorophenylamino)-4-methylamino-5-(4-acetylpiperazinocarbonylamino)-pyrimidine]
25 | 200 nM | CNc1nc(Nc2ccc(Cl)c(Cl)c2)ncc1NC(=O)N(C)CCO [11 (8), 2-(3,4-dichlorophenylamino)-4-methylamino-5-[[N-methyl-(2-hydroxyethyl)-amino]carbonylamino]-pyrimidine]
26 | 800 nM | CNc1nc(Nc2ccc(Cl)c(Cl)c2)ncc1NC(=O)N(C)CCN(C)C [11 (10), 2-(3,4-dichlorophenylamino)-4-methylamino-5-[[N-methyl-(2-dimethylamino-ethyl)amino]carbonylamino]-pyrimidine]
27 | 700 nM | CNc1nc(Nc2ccc(Cl)c(Cl)c2)ncc1NC(=O)N(C)CCCN(C)C [11 (11), 2-(3,4-dichlorophenylamino)-4-methylamino-5-[[N-methyl-(3-dimethylaminopropyl)amino]carbonylamino]-pyrimidine]
28 | 1000 nM | CNc1nc(Nc2ccc(Cl)c(Cl)c2)ncc1NC(=S)N1CCOCC1 [11 (12), 2-(3,4-dichlorophenylamino)-4-methylamino-5-(morpholinothiocarbonylamino)-pyrimidine]
29 | 1100 nM | CNc1nc(Nc2ccc(Cl)c(Cl)c2)ncc1N(C)S(C)(=O)=O [Example 8, 2-(3,4-dichlorophenylamino)-4-methylamino-5-(N-methyl-methylsulphonylamino)-pyrimidine]
30 | 100 nM | CNc1nc(Nc2ccc(Cl)c(Cl)c2)ncc1NC(=O)N1CCCC1 [Example 11, 2-(3,4-dichlorophenylamino)-4-methylamino-5-(pyrrolidinocarbonylamino)-pyrimidine]
